Source: US20080261812A1, “Pesticidal Mixtures” (BASF SE, priority 2005, published 2008)
Where two headings read alike, the source gives them in different places.

Tested on: southern armyworm (Spodoptera eridania) 3rd-instar larvae
Assay: Laboratory bioassay with southern armyworm larvae on dip-treated lima bean leaves
Format: in vivo
Settings: foliar, 120 h, read-out: % Mortality Observed
From the text: Serial dilutions of technical grade insecticides were made in 1:1 acetone:water diluent. Lima bean leaves were dipped into treatment solutions and allowed to air-dry. A single treated leaf was placed topside-up onto water-moistened filter paper in plastic Petri dishes, and then seven 3rd-instar southern armyworm (Spodoptera eridania) larvae were placed onto each leaf. Dishes were covered with a plastic lid to contain larvae. Each treatment was replicated 4 times (1 replicate=1 Petri dish). Following treatment application, infested Petri dishes were held in the laboratory under fluorescent lighting at 26° C. Numbers of live and dead larvae were counted in each dish at 5 days after treatment (DAT), and percent mortality was calculated for each treatment.
To determine if the insecticidal mixture was synergistic, Limpel's formula was used:
E=Expected % mortality of the mixture X=% mortality of compound X, as measured independently Y=% mortality of compound Y, as measured independently
Synergism was evident if the % observed mortality for the mixture was greater than the % expected mortality.

Row | Compound | mortality at 0.6 ppm (single insecticide, dose concentration 0.6 ppm, leaf dip, 5 DAT, 3rd-instar larvae) | mortality at 1 ppm (single insecticide, dose concentration 1.0 ppm, leaf dip, 5 DAT, 3rd-instar larvae) | mortality at 0.6 ppm
1 | N#Cc1ccc(CC(=NNC(=O)Nc2ccc(OC(F)(F)F)cc2)c2cccc(C(F)(F)F)c2)cc1 [Metaflumizone, metaflumizone] | 0% | 7% | 
2 | FC(F)(F)c1ccc(OCCCOc2c(Cl)cc(OCC=C(Cl)Cl)cc2Cl)nc1 [Pyridalyl, 2,6-dichloro-4-(3,3-dichloroallyloxy)phenyl 3-[5-(trifluoromethyl)-2-pyridyloxy]propyl ether] |  |  | 10%
